From Sander's compilation of Henry's law constants (doi:10.1016/s0021-9673(00)91567-x)

Test: Henry solubility constant Hcp at 298.15 K (mol/(m3 Pa))
Details: reference: Przyjazny et al. (1983)

Going from CCCCS [1-butanethiol] to CCCS [1-propanethiol], the “Henry solubility constant Hcp” value rises from 0.0022 to 0.0024.

Compared with Cc1cccs1 [2-methylthiophene], c1ccsc1 [thiophene] is higher in “Henry solubility constant Hcp” value: 0.0041 for the first, 0.0044 for the second.

Going from CC(C)SC(C)C [di-(2-propyl)-sulfide] to CSC [dimethyl sulfide], the “Henry solubility constant Hcp” value rises from 0.003 to 0.0056.

Compared with CCSSCC [diethyl disulfide], CCSCC [diethyl sulfide] is lower in “Henry solubility constant Hcp” value: 0.0063 for the first, 0.0054 for the second.

Going from CCCSCCC [dipropyl sulfide] to CCS [ethanethiol], the “Henry solubility constant Hcp” value falls from 0.0033 to 0.0028.

With CS [methanethiol] the “Henry solubility constant Hcp” value was 0.0039.
